Assay results reported in US4876260A, “Oxathiolanes” (State of Israel, Israel Institute of Biological Research, priority 1988, dated 1989).

Columns and labels:
mice = assay: Pharmacodynamic profile and general toxicity in mice; type: in vivo, CD-1 mice
Protocol: Male white mice of the CD-1 strain supplied by Charles River Ltd. (U.K.) were used throughout. An acclimatization period of at least three days was allowed between arrival and commencement of a particular experimental series. The animals were fed a complete commercial pelleted rodent diet without restriction during the acclimatization and study periods. Animals had free access to tap water. Body weights during testing were mostly within 20-28 g.
Test materials were prepared as aqueous solutions in physiological saline (0.9% NaCl), up to a maximum concentration of 10 mg./ml. All materials were freshly prepared on the morning prior to each dosing session. Dosages were expressed gravimetrically (mg./kg.), in terms of the materials as received.
Groups of mice (mostly n=5) received either i.v. or oral administration of the test materials at various dose levels. Dose volumes appropriate for respective dose levels selected, were determined for each animal according to body weights on the day of dosing. Any behavioral changes occurring during one to two hours after administration, as well as incidence of death up to 24 hours after dosing were recorded.

[1] = tested on: isolated guinea-pig ileum; assay: Contraction of isolated guinea-pig ileum preparation
Text: From this Table, it appears that compounds (III) were not so effective in contracting the guinea pig ileum preparation.

[2] = biological target: T1, M1 muscarinic receptors (3H-PZ sites, frontal cortex) (Rattus norvegicus, UniProt P08482); assay: Displacement of 3H-PZ from rat frontal cortex homogenate; type: binding; conditions: for Ki: (a') frontal cortex, read-out: Ki(3H-PZ); for a':c', Ki(3H-PZ):Ki(3H-CD): (g) frontal cortex ratio
T1 sequence (P08482 1-460): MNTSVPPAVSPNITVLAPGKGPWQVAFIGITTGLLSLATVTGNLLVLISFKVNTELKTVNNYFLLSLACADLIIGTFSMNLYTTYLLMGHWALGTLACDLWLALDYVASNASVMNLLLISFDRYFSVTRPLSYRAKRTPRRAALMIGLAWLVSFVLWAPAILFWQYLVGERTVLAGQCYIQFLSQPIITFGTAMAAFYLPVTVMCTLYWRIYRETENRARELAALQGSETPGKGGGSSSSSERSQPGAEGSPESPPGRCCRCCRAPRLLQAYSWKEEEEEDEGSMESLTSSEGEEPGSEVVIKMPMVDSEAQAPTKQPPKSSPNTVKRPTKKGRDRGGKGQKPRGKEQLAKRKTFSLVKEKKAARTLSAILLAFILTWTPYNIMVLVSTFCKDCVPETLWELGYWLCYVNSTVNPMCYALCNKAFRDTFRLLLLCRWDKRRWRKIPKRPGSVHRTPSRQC

[3] = tested on: muscarinic receptors (3H-QNB sites, cerebellum, mainly M2); assay: biochemical; type: binding, rat; conditions: for a:b": (h) Ki(3H-PZ) forebrain : Ki(3H-QNB) cerebellum; for b:b": (j) Ki(3H-QNB) forebrain : Ki(3H-QNB) cerebellum
[4] = biological target: T2, M1 muscarinic receptors (3H-PZ sites, forebrain) (Rattus norvegicus, UniProt P08482); assay: Displacement of 3H-Pirenzepine (3H-PZ, selective M1 antagonist) from rat forebrain homogenate; type: binding; conditions: for Ki: (a) forebrain
T2 sequence (P08482 1-460): T1 sequence (P08482 1-460)

[5] = 10 mg/kg i.v., listed as (-)-III AF122B
[6] = 25 mg/kg i.v., listed as (-)-III AF122B
[7] = 50 mg/kg i.v., listed as (-)-III AF122B
[8] = 100 mg/kg i.v., immed = immediately
[9] = 200 mg/kg p.o., listed as (-)-III AF122B
[10] = 50 mg/kg i.v., listed as (+)-III AF122A
[11] = 200 mg/kg p.o., listed as (+)-III AF122A
[12] = 25 mg/kg i.v., listed as (-)-III AF122A
[13] = 50 mg/kg i.v., listed as (-)-III AF122A
[14] = 200 mg/kg p.o., listed as (-)-III AF122A

Compound: CC1OCC2(CN3CCC2CC3)S1 (single isomer, unassigned) [compound 9, 2-methylspiro(1,3-oxathiolan-4,3')quinuclidine]
- Analgesia (nonresponsiveness to tail pinch), No. affected/total treated (mice; [5]): 3/5
- Mortality, No. dead/total treated (mice; [5]): 0/5
- Analgesia (nonresponsiveness to tail pinch), No. affected/total treated (mice; 25 mg/kg i.v.): 5/5
- Vocalization, No. affected/total treated (mice; 25 mg/kg i.v.): 1/5
- Altered motor activity (mice; [6]): a+h
- Convulsive seizures, No. affected/total treated (mice; [6]): 3/5
- Mortality, No. dead/total treated (mice; [6]): 0/5
- Respiratory distress, No. affected/total treated (mice; [6]): 2/5
- Tremors, No. affected/total treated (mice; [6]): 3/5
- Convulsive seizures, No. affected/total treated (mice; [7]): 2/2
- Mortality, No. dead/total treated (mice; [7]): 2/2
- Mortality, time after drug administration (mice; [7]): 5 s
- Altered motor activity (mice; 50 mg/kg p.o.): a+h
- Mortality, time after drug administration (mice; [8]): immed
- Mortality, No. dead/total treated (mice; 100 mg/kg i.v., listed as (-)-III AF122B): 2/2
- Convulsive seizures, No. affected/total treated (mice; 100 mg/kg p.o.): 2/5
- Respiratory distress, No. affected/total treated (mice; 100 mg/kg p.o.): 1/5
- Tremors, No. affected/total treated (mice; 100 mg/kg p.o.): 1/5
- Mortality, No. dead/total treated (mice; 100 mg/kg p.o., listed as (-)-III AF122B): 1/5
- Analgesia (nonresponsiveness to tail pinch), No. affected/total treated (mice; [9]): 3/4
- Convulsive seizures, No. affected/total treated (mice; [9]): 4/4
- Mortality, No. dead/total treated (mice; [9]): 4/4
- Respiratory distress, No. affected/total treated (mice; [9]): 3/5
- Vocalization, No. affected/total treated (mice; [9]): 2/4
- Mortality, time after drug administration (mice; 200 mg/kg p.o., m = minutes, listed as (-)-III AF122B): 20 m
- Contraction of guinea pig ileum (in words) ([1]; listed as (-)-AF122B): inconsistent contractile response: sometimes at high concentrations it induced contractions, whereas at other times it did not
- Ki [2]: 12.1 µM

Compound: C[C@H]1O[C@]2(CS1)CN1CCC2CC1 (single isomer, unassigned) [compound 6, 2-methylspiro(1,3-oxathiolan-5,3')quinuclidine]
- a:b" [3]: 0.1
- b:b" [3]: 0.48
- Ki [2]: 4.63 ± 0.42 µM
- a':c', Ki(3H-PZ):Ki(3H-CD) [2]: 0.6
- a:b, Ki(3H-PZ):Ki(3H-QNB) [4]: 0.20
- Ki [4]: 9.6 ± 1.8 µM

Compound: CC1OCC2(CN3CCC2CC3)S1 (single isomer, unassigned) [compound 13, 2-methylspiro(1,3-oxathiolan-4,3')quinuclidine]
- Mortality, No. dead/total treated (mice; 10 mg/kg i.v., listed as (+)-III AF122A): 0/5
- Mortality, No. dead/total treated (mice; 25 mg/kg i.v., listed as (+)-III AF122A): 0/5
- Exophthalmus, No. affected/total treated (mice; 50 mg/kg i.v.): 3/5
- Convulsive seizures, No. affected/total treated (mice; [10]): 5/5
- Mortality, No. dead/total treated (mice; [10]): 4/5
- Mortality, time after drug administration (mice; [10]): 30 s
- Tremors, No. affected/total treated (mice; [10]): 4/5
- Mortality, No. dead/total treated (mice; 50 mg/kg p.o.): 0/5
- Mortality, time after drug administration (mice; [8]): immed
- Mortality, No. dead/total treated (mice; 100 mg/kg i.v., listed as (+)-III AF122A): 1/1
- Mortality, No. dead/total treated (mice; 100 mg/kg p.o., listed as (+)-III AF122A): 0/5
- Altered motor activity (mice; [11]): a+h
- Mortality, No. dead/total treated (mice; [11]): 0/5
- Ki [2]: 4.21 ± 0.47 µM

Compound: C[C@H]1O[C@]2(CS1)CN1CCC2CC1 (single isomer, unassigned) [Compound #5, 2-methylspiro(1,3-oxathiolan-5,3')quinuclidine]
- a:b" [3]: 0.14
- b:b" [3]: 0.47
- Ki [2]: 0.41 ± 0.08 µM
- a':c', Ki(3H-PZ):Ki(3H-CD) [2]: 2.1
- a:b, Ki(3H-PZ):Ki(3H-QNB) [4]: 0.3
- Ki [4]: 1.1 ± 0.3 µM

Compound: C[C@@H]1O[C@]2(CS1)CN1CCC2CC1 (relative stereo) [compound 3, 2-methylspiro(1,3-oxathiolan-5,3')quinuclidine]
- a:b" [3]: 0.52
- b:b" [3]: 0.88
- a:b, Ki(3H-PZ):Ki(3H-QNB) [4]: 0.59
- Ki [4]: 14.6 ± 2.9 µM

Compound: C[C@H]1O[C@]2(CS1)CN1CCC2CC1 (relative stereo) [compound 4, 2-methylspiro(1,3-oxathiolan-5,3')quinuclidine]
- Agonist type (remarks) [1]: Full agonist
- a:b" [3]: 0.07
- a':b" ([3]; (i) Ki(3H-PZ) frontal cortex : Ki(3H-QNB) cerebellum): 0.1
- b:b" [3]: 0.47
- b':b" ([3]; (k) Ki(3H-QNB) frontal cortex : Ki(3H-QNB) cerebellum): 0.39
- a':b', Ki(3H-PZ):Ki(3H-QNB) [2]: 0.13
- Ki [2]: 0.96 ± 0.05 µM
- a':c', Ki(3H-PZ):Ki(3H-CD) [2]: 2.5
- a:b, Ki(3H-PZ):Ki(3H-QNB) [4]: 0.14
- Ki [4]: 1 ± 0.4 µM

Compound: CC1OCC2(CN3CCC2CC3)S1 (single isomer, unassigned) [compound 12, 2-methylspiro(1,3-oxathiolan-4,3')quinuclidine]
- Mortality, No. dead/total treated (mice; 10 mg/kg i.v., listed as (-)-III AF122A): 0/5
- Exophthalmus, No. affected/total treated (mice; 25 mg/kg i.v.): 4/5
- Convulsive seizures, No. affected/total treated (mice; [12]): 1/5
- Mortality, No. dead/total treated (mice; [12]): 1/5
- Mortality, time after drug administration (mice; [12]): 10 s
- Respiratory distress, No. affected/total treated (mice; [12]): 4/5
- Tremors, No. affected/total treated (mice; [12]): 4/5
- Convulsive seizures, No. affected/total treated (mice; [13]): 1/1
- Mortality, No. dead/total treated (mice; [13]): 1/1
- Mortality, time after drug administration (mice; [13]): 10 s
- Tremors, No. affected/total treated (mice; [13]): 1/1
- Mortality, time after drug administration (mice; [8]): immed
- Mortality, No. dead/total treated (mice; 100 mg/kg i.v., listed as (-)-III AF122A): 1/1
- Mortality, No. dead/total treated (mice; 100 mg/kg p.o., listed as (-)-III AF122A): 0/5
- Tremors, No. affected/total treated (mice; 200 mg/kg p.o.): 3/5
- Convulsive seizures, No. affected/total treated (mice; [14]): 1/5
- Mortality, No. dead/total treated (mice; [14]): 1/5
- Respiratory distress, No. affected/total treated (mice; [14]): 3/5
- Vocalization, No. affected/total treated (mice; [14]): 2/5
- Mortality, time after drug administration (mice; 200 mg/kg p.o., m = minutes, listed as (-)-III AF122A): 10 m
- Ki [2]: 0.35 ± 0.04 µM
